Measured values from publication PMC6268546, “A PAMPA Assay as Fast Predictive Model of Passive Human Skin Permeability of New Synthesized Corticosteroid C-21 Esters” (Molecules, 2012).

How the values were obtained:
[1] = PAMPA test (skin permeability model)
Description: The study was performed in triplicate and the results are presented as mean values. After the PAMPA tests was performed, a HPLC method was used to measure the concentrations of the investigated corticosteroids: the initial concentration–CD(0) in the starting solution, the residual concentration–CD(t) in the donor compartment (7 h after incubation) and the transferred concentration–CA(t) in the acceptor compartment (7 h after incubation). The assay was performed using the previously described HPLC method with mobile phase modification for determination of standard corticosteroids. The mobile phase modification was introduced to achieve complete separation standard corticosteroids peak from DMSO peak, which was used as cosolvent. DMSO was used as cosolvent with the aim of increasing the corticosteroid C-21 esters’ solubility. DMSO is one of the earliest and most widely studied penetration enhancers for transdermal drug delivery systems.
On the basis of the initial (100 μM) and calculated residual and transferred concentrations according to peak area comparison at zero time t0, the retention factors–R and permeability coefficients–logPe of investigated corticosteroids were obtained.
Phosphate buffer (pH = 7) was prepared by dissolving NaH2PO4·H2O (1.167 g) and Na2HPO4·7H2O (3.093 g) in water (1000 mL) with the fixed total concentration of 20 mM. The 5% DMSO solution were prepared dissolving DMSO in phosphate buffer. The corticosteroid solutions were prepared dissolving the investigated corticosteroid standards as well as new synthesized corticosteroid C-21 esters in 5% DMSO solution. […] An aliquot of previously prepared mixture (3.5 mL, 7 mL silicone oil and 3 mL IPM) was transferred into a 10 mL volumetric flask, dissolved and fill up to mark with n-hexane.
Permeation experiments were carried out in hydrophobic PVDF 96-well filter plates (Millipore, Molsheim, France). […] Next, in each well of acceptor plate, 5% DMSO solution (400 μL) was transferred with an automatic pipette and covered by the donor plate, creating a PAMPA sandwich. In each well of the donor plate solutions of the tested corticosteroid in 5% DMSO solution (100 μM, 300 μL) was transferred by the use of an automatic pipette. Each substance was measured in triplicate at iso-pH conditions (the same pH value in donor and receptor compartment). The donor plate was covered to prevent evaporation and the whole system set up to interact with the vibratory mixer. After 7 h, PAMPA sandwich was removed from the mixer and vibration, and using the HPLC method the concentration of the investigated substances in the donor and receptor compartments were determined. The HPLC method used was as previously described but with some necessary modifications. A mobile phase of methanol–water (75:25 v/v) was used for analysis of corticosteroid C-21 esters, while the mobile phase methanol–water (50:50 v/v) was used for the analysis of unesterified corticosteroids to increase their retention time and prevent overlapping with the DMSO peak. Other HPLC parameters were as previously described. The concentrations of each tested corticosteroid in the appropriate time interval in the donor and acceptor compartments were calculated using the method of comparing the peak area of the initial concentration at zero time t0.
The values of permeability coefficients–logPe and retention factors–R of examined corticosteroids were calculated using equations (2) and (3). The retention factor, R can be defined as the mole fraction retained in the membrane and in the microplates (i.e., filters and plate materials): [drawing 1] (2) where CA(t)/CD(0) represents the amount of compound that reached the acceptor compartment after incubation time t (for VA = VD): […]

[2] = approximate logKp (permeability coefficient through human skin) calculated from logPe by equation (1); details: logKp = 1.34 logPe + 0.28, from PAMPA logPe
Source text: Ottaviani and coworkers predicted skin permeation of numerous compounds applying a new membrane (70% silicone oil and 30% IPM) in the PAMPA test and presented permeate classifications on the basis of available literature permeability coefficients through human skin, logKp.
The proposed equation for correlation between logKp and logPe for 31 investigated compounds was: […]

[3] = parameters: method as in PMID 16789751; details: 70% silicone-30% IPM membrane, 7 h; cited from earlier work
[4] = tested on: croton oil induced mice ear edema; details: 4 h after application, at ED50 of FA (28 μM); cited from earlier work
[5] = 70% silicone oil-30% IPM membrane, 7 h incubation, 100 μM in 5% DMSO phosphate buffer pH 7, triplicate mean

Question: What does the source list for `C[C@@H]1C[C@H]2[C@@H]3CCC4=CC(=O)C=C[C@]4(C)[C@@]3(F)[C@@H](O)C[C@]2(C)[C@@]1(O)C(=O)CO` [DEX, dexamethasone, reference compound]?
Answer: permeation parameter CA(t)/CD(0) [1, 5]: 1.3 ± 0.8%; retention factor R (membrane retention) [1, 5]: 4.2 ± 2.0%; logKp (approximate, calculated) [2]: −7.75; logPe previously reported [3]: −5.75

Question: Which “permeation parameter CA(t)/CD(0)” value [1, 5] does the source give for `CC1(C)O[C@@H]2C[C@H]3[C@@H]4C[C@H](F)C5=CC(=O)C=C[C@]5(C)[C@@]4(F)[C@@H](O)C[C@]3(C)[C@]2(C(=O)CO)O1` [FA, fluocinolone acetonide, reference compound] here?
Answer: 6.7 ± 1.2%

Question: What about the “retention factor R (membrane retention)” value [1, 5] of the same compound?
Answer: <1%

Question: And the Papp at 7 h, 100 μM ([1]; PAMPA, pH 7)?
Answer: 5.5 ×10⁻⁶ cm/s

Question: What about the “logKp (approximate, calculated)” value [2] of the same compound?
Answer: −6.77

Question: What about the “relative anti-inflammatory activity (reduction of mass edema) in comparison to FA (100%)” value [4] of the same compound?
Answer: 100%

Question: For `CC(Oc1ccccc1)C(=O)OCC(=O)C12OC(C)(C)OC1CC1C3CC(F)C4=CC(=O)C=CC4(C)C3(F)C(O)CC12C` (stereo not shown) [FA-21-PhP, fluocinolone acetonide 21-(2′-phenoxypropionate)], which “permeability coefficient log Pe” value [1, 5] is on record?
Answer: −5.68 ± 0.15 cm/s

Question: What about the “permeation parameter CA(t)/CD(0)” value [1, 5] of the same compound?
Answer: 1.3 ± 0.6%

Question: And the “retention factor R (membrane retention)” value [1, 5]?
Answer: 71.9 ± 2.8%

Question: What about the “relative anti-inflammatory activity (reduction of mass edema) in comparison to FA (100%)” value [4] of the same compound?
Answer: 65%
